Test results from US4822773A (Merck & Co., Inc., priority 1987, dated 1989).
One block for each compound: values may come before it.

What was measured:
in vivo = details: rat
Description: Experiments were performed with rats wherein each animal received an aqueous microenema applied to the rectal cavity. The microenemas contained target drug entity (amount shown in table) in the presence or absence of 5 mg lauroylcholine chloride or palmitoylcholine iodide. Blood levels were monitored and the amount of drug absoreed calculated against intravenous administration and expressed as percent bioavailability.
The amount of drug absorbed is expressed as percent bioavailability versus intravenous administration
Blood was collected and sodium cefoxitin measured. Absorption of sodium cefoxitin is expressed as percent bioavailability versus intravenous administration.

[1] = Small intestinal (duodenal) absorption from aqueous solution in rats, percent bioavailability versus intravenous administration; format: in vivo; details: vs intravenous
Description: Blood levels were monitored and the amount of polypeptide absorbed calculated against intravenous administration and expressed as percent bioavailability.
Experiments were performed as in Example 5. The solutions contained 10 mg/kg of cefoxitin and 20 mg/kg of absorption promoters. Blood levels of cefoxitin were monitored and the bioavailability of cefoxitin absorbed was calculated against intravenous administration.

Percent Bioavailability (mean ± SD) with Control (in vivo): 0.5 ± 0.1%
SMILES: Nc1ccn([C@@H]2O[C@H](CO)[C@@H](O)[C@@H]2O)c(=O)n1 [Cytarabine]

Percent Bioavailability (mean ± SD) with Control (in vivo): 2 ± 1.1%
Sodium Cefoxitin Percent Bioavailability (mean ± SD), compound None (in vivo; pH 6): 2 ± 1.1%
Percent Bioavailability (mean ± SD) of cefoxitin, adjuvant None ([1]; duodenal solution, 10 mg/kg cefoxitin alone): 2 ± 1.1%
SMILES: CO[C@@]1(NC(=O)Cc2cccs2)C(=O)N2C(C(=O)O)=C(COC(N)=O)CS[C@@H]21 [Sodium cefoxitin]

Absorption of the drug by itself (in vivo): absorbed well by itself
Percent Bioavailability (mean ± SD) with Control (in vivo): 75 ± 3.3%
SMILES: Cn1c(=O)c2[nH]cnc2n(C)c1=O [Theophylline]

bioavailability (in vivo; Percent Bioavailability (mean ± SD) with Control): 7 ± 3.5%
bioavailability ([1]; rat, blood, aqueous solution applied to duodenal region, 0.1 mg polypeptide alone, read-out: Percent Bioavailability (mean ± SD), adjuvant None): 1%
SMILES: CC(C)[C@@H]1NC(=O)[C@H](CCCCN)NC(=O)[C@@H](Cc2c[nH]c3ccccc23)NC(=O)[C@H](Cc2ccc(O)cc2)NC(=O)[C@H](C)N(C)C(=O)[C@H](Cc2ccccc2)NC1=O [cyclo(N--Me--Ala--Try--DTrp--Lys--Val--Phe)acetate]
